In PubChem BioAssay AID248 (DTP/NCI, 2004):
Where “and” joins values, the source holds several entries; their conditions need not be identical. Identical values can stand only once. Toxic doses and inconclusive results are not listed.

System: L1210 leukemia ip in BDF1 mice, survival T/C
Assay: NCI In Vivo Anticancer Drug Screen. Data for tumor model L1210 Leukemia (intraperitoneal) in B6D2F1 (BDF1) mice
Settings: higher = longer survival
How it was run: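 Read-out is survival time, reported as the treated-group measurement over the vehicle-control measurement.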

[1] = endpoint: mean survival time, dose: 100.0 mg/kg/injection, schedule: Q01DX001 (ip), vehicle: saline
[2] = endpoint: mean survival time, dose: 200.0 mg/kg/injection, schedule: Q01DX001 (ip), vehicle: saline

In the case of `COc1cc([C@@H]2c3cc4c(cc3[C@@H](OC3OC5CO[C@@H](c6cccs6)OC5C(O)C3O)[C@H]3COC(=O)[C@H]23)OCO4)cc(OC)c1O` (stereo partly specified), the T/C (endpoint: mean survival time, dose: 0.5 mg/kg/injection, schedule: Q03HX024 (ip), vehicle: other) is reported as 109 % of control, the T/C (endpoint: mean survival time, dose: 1.0 mg/kg/injection, schedule: Q01DX009 (ip), vehicle: other) is reported as 111 % of control and the T/C (endpoint: mean survival time, dose: 1.0 mg/kg/injection, schedule: Q03HX008 (ip), vehicle: other) is reported as 122 % of control. For the same molecule, the T/C (endpoint: mean survival time, dose: 1.0 mg/kg/injection, schedule: Q03HX016 (ip), vehicle: other) was 111 % of control, the T/C (endpoint: mean survival time, dose: 1.0 mg/kg/injection, schedule: Q03HX024 (ip), vehicle: other) was 118 % of control and the T/C (endpoint: mean survival time, dose: 2.0 mg/kg/injection, schedule: Q01DX009 (oral), vehicle: other) was 104 % of control. For the same molecule, the T/C (endpoint: mean survival time, dose: 2.0 mg/kg/injection, schedule: Q03HX008 (oral), vehicle: other) was 90 % of control, the T/C (endpoint: mean survival time, dose: 2.0 mg/kg/injection, schedule: Q04DX003 (ip), vehicle: water) was 194 % of control and the T/C (endpoint: mean survival time, dose: 2.0 mg/kg/injection, schedule: Q08DX002 (ip), vehicle: water) was 156 % of control. The T/C (endpoint: mean survival time, dose: 4.0 mg/kg/injection, schedule: Q01DX001 (ip), vehicle: water) was 157 % of control, the T/C (endpoint: mean survival time, dose: 4.0 mg/kg/injection, schedule: Q01DX009 (oral), vehicle: other) was 101 % of control and the T/C (endpoint: mean survival time, dose: 4.0 mg/kg/injection, schedule: Q03HX008 (oral), vehicle: other) was 98 % of control. For the same molecule, the T/C (endpoint: mean survival time, dose: 4.0 mg/kg/injection, schedule: Q04DX003 (ip), vehicle: other) was 110 % of control, the T/C (endpoint: mean survival time, dose: 4.0 mg/kg/injection, schedule: Q04DX003 (ip), vehicle: water) was 241 % of control and the T/C (endpoint: mean survival time, dose: 4.0 mg/kg/injection, schedule: Q08DX002 (ip), vehicle: water) was 172 % of control. The T/C (endpoint: mean survival time, dose: 8.0 mg/kg/injection, schedule: Q01DX001 (ip), vehicle: water) was 162 % of control, the T/C (endpoint: mean survival time, dose: 8.0 mg/kg/injection, schedule: Q01DX009 (oral), vehicle: other) was 105 % of control and the T/C (endpoint: mean survival time, dose: 8.0 mg/kg/injection, schedule: Q03HX008 (oral), vehicle: other) was 100 % of control. The T/C (endpoint: mean survival time, dose: 8.0 mg/kg/injection, schedule: Q03HX016 (ip), vehicle: other) was 186 % of control, the T/C (endpoint: mean survival time, dose: 8.0 mg/kg/injection, schedule: Q03HX016 (oral), vehicle: other) was 95 % of control and the T/C (endpoint: mean survival time, dose: 8.0 mg/kg/injection, schedule: Q03HX024 (oral), vehicle: other) was 98 % of control. The T/C (endpoint: mean survival time, dose: 8.0 mg/kg/injection, schedule: Q04DX003 (ip), vehicle: water) was 426 % of control, the T/C (endpoint: mean survival time, dose: 8.0 mg/kg/injection, schedule: Q04DX003 (oral), vehicle: other) was 97 % of control and the T/C (endpoint: mean survival time, dose: 8.0 mg/kg/injection, schedule: Q08DX002 (ip), vehicle: other) was 109 % of control. The T/C (endpoint: mean survival time, dose: 8.0 mg/kg/injection, schedule: Q08DX002 (ip), vehicle: water) was 300 % of control, the T/C (endpoint: mean survival time, dose: 16.0 mg/kg/injection, schedule: Q01DX001 (ip), vehicle: water) was 439 % of control and the T/C (endpoint: mean survival time, dose: 16.0 mg/kg/injection, schedule: Q01DX001 (oral), vehicle: other) was 111 % of control. For the same molecule, the T/C (endpoint: mean survival time, dose: 16.0 mg/kg/injection, schedule: Q01DX009 (oral), vehicle: other) was 103 % of control, the T/C (endpoint: mean survival time, dose: 16.0 mg/kg/injection, schedule: Q03HX008 (oral), vehicle: other) was 95 % of control and the T/C (endpoint: mean survival time, dose: 16.0 mg/kg/injection, schedule: Q03HX016 (oral), vehicle: other) was 94 % of control and 95 % of control. The T/C (endpoint: mean survival time, dose: 16.0 mg/kg/injection, schedule: Q03HX024 (oral), vehicle: other) was 93 % of control, the T/C (endpoint: mean survival time, dose: 16.0 mg/kg/injection, schedule: Q04DX003 (ip), vehicle: water) was 172 % of control and the T/C (endpoint: mean survival time, dose: 16.0 mg/kg/injection, schedule: Q04DX003 (oral), vehicle: other) was 106 % of control. The T/C (endpoint: mean survival time, dose: 16.0 mg/kg/injection, schedule: Q08DX002 (ip), vehicle: other) was 122 % of control, the T/C (endpoint: mean survival time, dose: 16.0 mg/kg/injection, schedule: Q08DX002 (ip), vehicle: water) was 423 % of control and the T/C (endpoint: mean survival time, dose: 16.0 mg/kg/injection, schedule: Q08DX002 (oral), vehicle: other) was 102 % of control. For the same molecule, the T/C (endpoint: mean survival time, dose: 32.0 mg/kg/injection, schedule: Q01DX001 (ip), vehicle: water) was 242 % of control, the T/C (endpoint: mean survival time, dose: 32.0 mg/kg/injection, schedule: Q01DX001 (oral), vehicle: other) was 161 % of control and the T/C (endpoint: mean survival time, dose: 32.0 mg/kg/injection, schedule: Q03HX016 (oral), vehicle: other) was 98 % of control. For the same molecule, the T/C (endpoint: mean survival time, dose: 32.0 mg/kg/injection, schedule: Q03HX024 (oral), vehicle: other) was 94 % of control, the T/C (endpoint: mean survival time, dose: 32.0 mg/kg/injection, schedule: Q04DX003 (ip), vehicle: water) was 103 % of control and the T/C (endpoint: mean survival time, dose: 32.0 mg/kg/injection, schedule: Q04DX003 (oral), vehicle: other) was 100 % of control. The T/C (endpoint: mean survival time, dose: 32.0 mg/kg/injection, schedule: Q08DX002 (ip), vehicle: water) was 163 % of control, the T/C (endpoint: mean survival time, dose: 32.0 mg/kg/injection, schedule: Q08DX002 (oral), vehicle: other) was 100 % of control and the T/C (endpoint: mean survival time, dose: 64.0 mg/kg/injection, schedule: Q01DX001 (ip), vehicle: other) was 188 % of control. The T/C (endpoint: mean survival time, dose: 64.0 mg/kg/injection, schedule: Q01DX001 (oral), vehicle: other) was 98 % of control, the T/C (endpoint: mean survival time, dose: 64.0 mg/kg/injection, schedule: Q03HX024 (oral), vehicle: other) was 92 % of control and the T/C (endpoint: mean survival time, dose: 64.0 mg/kg/injection, schedule: Q04DX003 (oral), vehicle: other) was 97 % of control. For the same molecule, the T/C (endpoint: mean survival time, dose: 64.0 mg/kg/injection, schedule: Q08DX002 (ip), vehicle: other) was 190 % of control, the T/C (endpoint: mean survival time, dose: 64.0 mg/kg/injection, schedule: Q08DX002 (oral), vehicle: other) was 96 % of control and the T/C (endpoint: mean survival time, dose: 128.0 mg/kg/injection, schedule: Q01DX001 (oral), vehicle: other) was 101 % of control. For the same molecule, the T/C (endpoint: mean survival time, dose: 128.0 mg/kg/injection, schedule: Q03HX024 (oral), vehicle: other) was 94 % of control, the T/C (endpoint: mean survival time, dose: 128.0 mg/kg/injection, schedule: Q04DX003 (oral), vehicle: other) was 96 % of control and the T/C (endpoint: mean survival time, dose: 128.0 mg/kg/injection, schedule: Q08DX002 (oral), vehicle: other) was 98 % of control. The T/C (endpoint: mean survival time, dose: 600.0 mg/kg/injection, schedule: Q01DX009 (ip), vehicle: steriod suspending solution) was 224 % of control, the T/C (endpoint: mean survival time, dose: 800.0 mg/kg/injection, schedule: Q01DX009 (ip), vehicle: steriod suspending solution) was 246 % of control and the T/C (endpoint: mean survival time, dose: 1000.0 mg/kg/injection, schedule: Q01DX009 (ip), vehicle: steriod suspending solution) was 169 % of control. For the same molecule, the T/C (endpoint: median survival time, dose: 1.0 mg/kg/injection, schedule: Q01DX009 (ip), vehicle: saline) was 194 % of control, the T/C (endpoint: median survival time, dose: 2.0 mg/kg/injection, schedule: Q01DX009 (ip), vehicle: saline) was 116 % of control and the T/C (endpoint: median survival time, dose: 4.0 mg/kg/injection, schedule: Q01DX009 (ip), vehicle: saline) was 88 % of control.
`[O-][n+]1ccc(CCc2ccccc2)cc1` was tested, and the T/C (endpoint: mean survival time, dose: 100.0 mg/kg/injection, schedule: Q04DX002 (ip), vehicle: saline with Tween-80) was 101 % of control and the T/C (endpoint: mean survival time, dose: 200.0 mg/kg/injection, schedule: Q04DX002 (ip), vehicle: saline with Tween-80) was 101 % of control.
In the case of `CC[CH2][Sn]([CH2]CC)([CH2]CC)[O]C(=O)CN1CCC[CH]([Hg][c]2cccnc2)C1` (stereo unspecified), the T/C (endpoint: mean survival time, dose: 50.0 mg/kg/injection, schedule: Q01DX001 (ip), vehicle: saline) is reported as 98 % of control, the T/C [1] is reported as 109 % of control and the T/C [2] is reported as 104 % of control.
With `CCOC(=O)C1(C(=O)OCC)CCC(OCC)N1C(=O)c1cc(OC)c(OC)cc1[N+](=O)[O-]` (stereo unspecified) the T/C (endpoint: mean survival time, dose: 100.0 mg/kg/injection, schedule: Q04DX003 (ip), vehicle: Klucel (hydroxypropylcellulose) (HPC)) was 105 % of control, the T/C (endpoint: mean survival time, dose: 200.0 mg/kg/injection, schedule: Q04DX003 (ip), vehicle: Klucel (hydroxypropylcellulose) (HPC)) was 100 % of control and the T/C (endpoint: mean survival time, dose: 400.0 mg/kg/injection, schedule: Q04DX003 (ip), vehicle: Klucel (hydroxypropylcellulose) (HPC)) was 99 % of control.
With `CCOC(=O)CC(=O)O` the T/C [1] was 91 % of control, the T/C [2] was 97 % of control and the T/C (endpoint: mean survival time, dose: 400.0 mg/kg/injection, schedule: Q01DX001 (ip), vehicle: saline) was 91 % of control.
`CS(=O)(=O)OCCCN(CCCOS(C)(=O)=O)c1ccc(C=Nc2ccc(-c3csc(COc4ccc(Cl)cc4)n3)cc2)cc1` was tested, and the T/C (endpoint: mean survival time, dose: 100.0 mg/kg/injection, schedule: Q01DX009 (ip), vehicle: saline with Tween-80) was 97 % of control, the T/C (endpoint: mean survival time, dose: 200.0 mg/kg/injection, schedule: Q01DX009 (ip), vehicle: saline with Tween-80) was 94 % of control and the T/C (endpoint: mean survival time, dose: 400.0 mg/kg/injection, schedule: Q01DX009 (ip), vehicle: saline with Tween-80) was 94 % of control.
`BrC(Br)(Br)c1ccc2ccccc2n1` was tested, and the T/C (endpoint: mean survival time, dose: 50.0 mg/kg/injection, schedule: Q01DX001 (ip), vehicle: other) was 109 % of control, the T/C (endpoint: mean survival time, dose: 100.0 mg/kg/injection, schedule: Q01DX001 (ip), vehicle: other) was 103 % of control and the T/C (endpoint: mean survival time, dose: 100.0 mg/kg/injection, schedule: Q04DX003 (ip), vehicle: saline with Tween-80) was 93 % of control. The T/C (endpoint: mean survival time, dose: 200.0 mg/kg/injection, schedule: Q01DX001 (ip), vehicle: other) was 101 % of control, the T/C (endpoint: mean survival time, dose: 200.0 mg/kg/injection, schedule: Q04DX003 (ip), vehicle: saline with Tween-80) was 93 % of control and the T/C (endpoint: mean survival time, dose: 400.0 mg/kg/injection, schedule: Q01DX001 (ip), vehicle: other) was 97 % of control. The T/C (endpoint: mean survival time, dose: 400.0 mg/kg/injection, schedule: Q04DX003 (ip), vehicle: saline with Tween-80) was 95 % of control.
